The structures appear in SMILES notation. A value given as a limit tells only on which side of the number the result lay.

One may read the melting point as the temperature of the solid-liquid transition.

On to `O=c1ccc(S(=O)(=O)c2c(F)cc(F)cc2Cl)n[nH]1` [Example 4N, 6-(2-Chloro-4,6-difluoro-benzenesulfonyl)-2H-pyridazin-3-one], for which the melting point is above 250 °C.

Compound `Cc1cc(Cl)cc(S(=O)(=O)c2ccc(=O)[nH]n2)c1` [Example 4M, 6-(3-Chloro-5-methyl-benzenesulfonyl)-2H-pyridazin-3-one] registered a melting point above 250 °C.

In the case of `O=c1ccc(S(=O)(=O)c2ccc(Cl)c(Cl)c2)n[nH]1` [Example 4D, 6-(3,4-Dichloro-benzenesulfonyl)-2H-pyridazin-3-one], the melting point lay within 166 to 168 °C.

For the compound `O=c1ccc(S(=O)(=O)c2cccc(Br)c2)n[nH]1` [Example 4I, 6-(3-Bromo-benzenesulfonyl)-2H-pyridazin-3-one], the melting point was above 220 °C.

The values above are taken from US6730674B2, “Sulfonyl pyridazinone compounds useful as aldose reductase inhibitors” (Pfizer Inc, priority 2001, dated 2004).
